# According to publication PMC4967259 (The American journal on addictions / American Academy of …, 2016):
# Where two headings read alike, the source gives them in different places.
# Assays:
# [1] = for elimination half-life: metabolite in plasma after iv cocaine, unaffected by donepezil treatment
# Cardiovascular response = assay type: in vivo, human
# rats [2] = conditions: cited from earlier work
# rodent = rodent studies, acute; cited from earlier work
# rats [3] = conditions: cited from earlier work; remark: listed apart in the source
# [4] = rat model of ischemic heart disease
smiles,measurement,setting,value
"CN1[C@H]2CC[C@@H]1[C@@H](C(=O)O)[C@@H](OC(=O)c1ccccc1)C2 [Benzoylecgonine, benzoylecgonine]",elimination half-life,[1],approximately six hours
"COC(=O)[C@H]1[C@@H](OC(=O)c2ccccc2)C[C@@H]2CC[C@H]1N2C [Cocaine, cocaine]",change in systolic blood pressure,"Cardiovascular response; iv cocaine 0.18 and 0.36 mg/kg, most pronounced over the initial 30 minutes",dose-related increases
same,Tmax,"[1]; human, in vivo, iv, 0.36 mg/kg",10 min
"COc1cc2c(cc1OC)C(=O)C(CC1CCN(Cc3ccccc3)CC1)C2 (centres unmarked) [Donepezil, donepezil]",effect on increases in blood pressure,"Cardiovascular response; oral donepezil 5 mg daily, high-dose cocaine (0.36 mg/kg iv)",not affected
same,effect on diastolic blood pressure and heart rate after cocaine,"Cardiovascular response; oral donepezil 5 mg daily, iv cocaine, data not shown",unaffected
same,effect on peak values of blood pressure and heart rate,"Cardiovascular response; oral donepezil 5 mg daily, iv placebo or cocaine 0.18 and 0.36 mg/kg",did not modify peak values
same,effect on drug-induced elevations of systolic blood pressure,"Cardiovascular response; oral donepezil 5 mg daily, low-dose cocaine (0.18 mg/kg iv), p < 0.001",attenuated
same,blood pressure,rats [2]; [4],without affecting blood pressure
same,heart rate,rats [2]; [4],decreased heart rate
same,heart failure and survival,"rats [2]; rat, following coronary artery ligation",prevent heart failure and improve survival
same,cocaine self-administration,rodent,attenuate cocaine self-administration
"COC(=O)[C@@H]1[C@H]2CC[C@@H](C[C@@H]1O)N2C [Ecgonine Methyl Ester, ecgonine methyl ester]",elimination half-life,[1],approximately five hours
CNC(=O)Oc1ccc2c(c1)[C@]1(C)CCN(C)[C@@H]1N2C [physostigmine],cocaine-induced lethality,rats [3]; high doses of physostigmine,increased
same,cocaine-induced lethality,rats [3]; low doses of physostigmine,decreased
